For this assay, the target named is T1, ATR kinase (full-length ATR) (Homo sapiens, UniProt Q13535).
T1 construct: Assays were carried out at 25° C. in the presence of 5 nM full-length ATR
Nature of the assay: ATR Inhibition Assay (radioactive-phosphate incorporation). It is filed as biochemical. An outline of the steps:
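Radiometric 33P filter assay with 5 nM full-length ATR in 50 mM Tris/HCl pH 7.5, 10 mM MgCl2, 1 mM DTT at 25 °C. Final 10 μM [γ-33P]ATP and 800 μM peptide; 10 min compound preincubation, ATP start, stopped at 24 h with phosphoric acid/ATP. Ki(app) from non-linear regression of background-corrected initial rates.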

The mark [1] stands for this setting: Ki(app), 5 nM full-length ATR, 10 μM ATP, 800 μM target peptide, 25° C., class symbols, read-out: ATR Inhibition Ki.
The mark [2] stands for this setting: Ki(app), 5 nM full-length ATR, 10 μM ATP, 800 μM target peptide, 25° C., given as numeric lower bound without unit, read-out: ATR Inhibition Ki.

Read-outs that look alike come from different tables or passages of the source.

T1 sequence (Q13535 whole entry): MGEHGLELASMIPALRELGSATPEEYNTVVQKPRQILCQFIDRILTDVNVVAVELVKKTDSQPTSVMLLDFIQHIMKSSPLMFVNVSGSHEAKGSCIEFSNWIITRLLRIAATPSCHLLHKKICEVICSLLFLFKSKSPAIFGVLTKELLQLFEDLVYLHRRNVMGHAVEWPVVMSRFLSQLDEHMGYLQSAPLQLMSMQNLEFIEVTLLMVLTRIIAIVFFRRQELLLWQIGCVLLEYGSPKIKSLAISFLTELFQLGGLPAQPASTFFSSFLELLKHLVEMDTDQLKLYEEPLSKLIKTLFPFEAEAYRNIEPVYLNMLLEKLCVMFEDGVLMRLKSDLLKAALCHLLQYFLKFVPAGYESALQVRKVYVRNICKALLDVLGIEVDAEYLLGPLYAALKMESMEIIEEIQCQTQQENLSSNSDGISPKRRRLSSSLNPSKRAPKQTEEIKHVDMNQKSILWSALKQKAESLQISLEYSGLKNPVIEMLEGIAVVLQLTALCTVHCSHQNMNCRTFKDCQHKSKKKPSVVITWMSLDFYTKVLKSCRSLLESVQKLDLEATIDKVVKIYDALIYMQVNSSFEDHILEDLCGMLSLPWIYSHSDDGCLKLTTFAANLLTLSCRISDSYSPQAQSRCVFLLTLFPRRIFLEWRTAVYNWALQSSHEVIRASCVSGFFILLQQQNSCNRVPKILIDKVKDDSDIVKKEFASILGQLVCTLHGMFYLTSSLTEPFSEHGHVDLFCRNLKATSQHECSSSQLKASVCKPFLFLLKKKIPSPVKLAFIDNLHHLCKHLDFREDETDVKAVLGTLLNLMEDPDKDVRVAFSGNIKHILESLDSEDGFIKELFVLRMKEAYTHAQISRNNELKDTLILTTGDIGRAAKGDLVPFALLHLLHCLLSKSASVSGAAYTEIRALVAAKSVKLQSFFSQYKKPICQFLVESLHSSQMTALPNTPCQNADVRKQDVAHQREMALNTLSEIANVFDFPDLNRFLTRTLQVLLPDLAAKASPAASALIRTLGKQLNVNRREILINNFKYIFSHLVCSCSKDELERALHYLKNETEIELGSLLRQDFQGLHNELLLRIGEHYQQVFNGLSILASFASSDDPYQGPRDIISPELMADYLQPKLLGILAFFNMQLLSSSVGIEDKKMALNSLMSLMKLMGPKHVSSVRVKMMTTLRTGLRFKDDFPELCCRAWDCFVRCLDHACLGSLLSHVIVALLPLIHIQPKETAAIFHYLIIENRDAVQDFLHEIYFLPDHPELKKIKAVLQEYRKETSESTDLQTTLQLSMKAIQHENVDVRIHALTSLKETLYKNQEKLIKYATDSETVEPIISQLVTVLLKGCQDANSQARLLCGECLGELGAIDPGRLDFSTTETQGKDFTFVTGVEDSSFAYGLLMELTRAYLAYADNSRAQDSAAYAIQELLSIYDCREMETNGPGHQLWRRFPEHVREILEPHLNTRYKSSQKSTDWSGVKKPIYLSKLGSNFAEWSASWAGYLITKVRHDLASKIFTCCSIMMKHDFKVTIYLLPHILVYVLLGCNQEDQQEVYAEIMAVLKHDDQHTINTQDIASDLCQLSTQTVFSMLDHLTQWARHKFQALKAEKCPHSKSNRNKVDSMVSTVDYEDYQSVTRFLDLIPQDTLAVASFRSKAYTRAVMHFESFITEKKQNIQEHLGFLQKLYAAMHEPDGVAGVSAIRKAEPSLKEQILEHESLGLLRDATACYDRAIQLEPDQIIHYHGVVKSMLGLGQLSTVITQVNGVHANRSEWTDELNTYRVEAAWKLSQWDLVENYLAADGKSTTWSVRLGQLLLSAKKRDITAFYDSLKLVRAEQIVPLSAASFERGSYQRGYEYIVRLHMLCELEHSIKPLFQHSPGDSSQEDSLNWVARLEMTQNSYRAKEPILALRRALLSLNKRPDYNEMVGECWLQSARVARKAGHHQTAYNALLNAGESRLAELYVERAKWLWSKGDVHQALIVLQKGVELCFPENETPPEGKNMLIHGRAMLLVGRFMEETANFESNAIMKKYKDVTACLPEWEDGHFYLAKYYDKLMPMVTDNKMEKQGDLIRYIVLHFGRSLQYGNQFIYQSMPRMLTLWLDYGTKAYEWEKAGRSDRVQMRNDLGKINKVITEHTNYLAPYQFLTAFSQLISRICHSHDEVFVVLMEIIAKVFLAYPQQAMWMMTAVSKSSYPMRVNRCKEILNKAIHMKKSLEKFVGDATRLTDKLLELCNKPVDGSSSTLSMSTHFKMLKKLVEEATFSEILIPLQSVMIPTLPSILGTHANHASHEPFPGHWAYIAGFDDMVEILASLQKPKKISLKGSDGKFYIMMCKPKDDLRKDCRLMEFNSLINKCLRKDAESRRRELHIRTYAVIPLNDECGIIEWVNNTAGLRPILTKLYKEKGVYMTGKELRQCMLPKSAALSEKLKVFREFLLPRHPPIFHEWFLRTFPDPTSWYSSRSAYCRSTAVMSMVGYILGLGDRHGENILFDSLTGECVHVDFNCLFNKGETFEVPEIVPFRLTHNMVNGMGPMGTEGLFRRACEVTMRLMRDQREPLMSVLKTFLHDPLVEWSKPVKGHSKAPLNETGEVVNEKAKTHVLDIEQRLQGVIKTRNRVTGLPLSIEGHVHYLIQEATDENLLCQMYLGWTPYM

As to `CC(C)S(=O)(=O)c1ccc(-c2cnc3[nH]cc(C(=O)N4CCCCC4CO)c3n2)cc1` (centres unmarked) [Compound I-115, [2-(hydroxymethyl)-1-piperidyl]-[2-(4-isopropylsulfonylphenyl)-5H-pyrrolo[2,3-b]pyrazin-7-yl]methanone], the Ki under setting [1] is 500 to 5000 nM. For the compound `CC(C)S(=O)(=O)c1ccc(-c2cnc3[nH]cc(C(=O)NCc4ccc5c(c4)OCO5)c3n2)cc1` [Compound I-125, N-(1,3-benzodioxol-5-ylmethyl)-2-(4-isopropylsulfonylphenyl)-5H-pyrrolo[2,3-b]pyrazine-7-carboxamide], the Ki under setting [1] is less than 100 nM.

`CC(C)S(=O)(=O)c1ccc(-c2cnc3[nH]cc(C(=O)NCc4ccccc4Cl)c3n2)cc1` [Compound I-48, N-[(2-chlorophenyl)methyl]-2-(4-isopropylsulfonylphenyl)-5H-pyrrolo[2,3-b]pyrazine-7-carboxamide]: the Ki under setting [1] is less than 100 nM.

Turning to `CC(C)S(=O)(=O)c1ccc(-c2cnc3[nH]cc(C(=O)Nc4ccccc4N)c3n2)cc1` [Compound I-19, N-(2-aminophenyl)-2-(4-isopropylsulfonylphenyl)-5H-pyrrolo[2,3-b]pyrazine-7-carboxamide], the Ki under setting [1] is 100 to 500 nM.

Consider `Cc1ccc(NC(=O)c2c[nH]c3ncc(-c4ccc(S(=O)(=O)C(C)C)cc4)nc23)cc1` [Compound I-70, 2-(4-isopropylsulfonylphenyl)-N-(p-tolyl)-5H-pyrrolo[2,3-b]pyrazine-7-carboxamide], for which the Ki under setting [1] lay in the range of 100 to 500 nM. On to `CC(C)S(=O)(=O)c1ccc(-c2cnc3[nH]cc(C(=O)NCc4cccnc4)c3n2)cc1` [Compound I-59, 2-(4-isopropylsulfonylphenyl)-N-(3-pyridylmethyl)-5H-pyrrolo[2,3-b]pyrazine-7-carboxamide], for which the Ki under setting [1] lay within 100 to 500 nM.

On to `Cc1ccc(Cl)cc1CNC(=O)c1c[nH]c2ncc(-c3ccc(S(=O)(=O)C(C)C)cc3)nc12` [Compound I-67, N-[(5-chloro-2-methyl-phenyl)methyl]-2-(4-isopropylsulfonylphenyl)-5H-pyrrolo[2,3-b]pyrazine-7-carboxamide], for which the Ki under setting [1] is less than 100 nM. As for `CC(C)S(=O)(=O)c1ccc(-c2cnc3[nH]cc(C(=O)NCC4CCC(CN)CC4)c3n2)cc1` (centres unmarked) [Compound I-93, N-[[4-(aminomethyl)cyclohexyl]methyl]-2-(4-isopropylsulfonylphenyl)-5H-pyrrolo[2,3-b]pyrazine-7-carboxamide], the Ki under setting [1] was in the range of 100 to 500 nM. Turning to `CC(C)S(=O)(=O)c1ccc(-c2cnc3[nH]cc(C(=O)NC4CCOC4)c3n2)cc1` (centres unmarked) [Compound I-118, 2-(4-isopropylsulfonylphenyl)-N-tetrahydrofuran-3-yl-5H-pyrrolo[2,3-b]pyrazine-7-carboxamide], the Ki under setting [1] was in the range of 100 to 500 nM. Consider `COCCNC(=O)c1c[nH]c2ncc(-c3ccc(S(=O)(=O)C(C)C)cc3)nc12` [Compound I-119, 2-(4-isopropylsulfonylphenyl)-N-(2-methoxyethyl)-5H-pyrrolo[2,3-b]pyrazine-7-carboxamide], for which the Ki under setting [1] lay within 100 to 500 nM. As to `CC(C)S(=O)(=O)c1ccc(-c2cnc3[nH]cc(C(=O)N4CCOCC4)c3n2)cc1` [Compound I-120, [2-(4-isopropylsulfonylphenyl)-5H-pyrrolo[2,3-b]pyrazin-7-yl]-morpholino-methanone], under setting [2], the Ki is greater than 2500 nM. `Cc1ccc(CNC(=O)c2c[nH]c3ncc(-c4ccc(S(=O)(=O)C(C)C)cc4)nc23)cc1` [Compound I-17, 2-(4-isopropylsulfonylphenyl)-N-(p-tolylmethyl)-5H-pyrrolo[2,3-b]pyrazine-7-carboxamide]: the Ki under setting [1] was less than 100 nM. Turning to `Cc1ccc([C@H](CCO)NC(=O)c2c[nH]c3ncc(-c4ccc(S(=O)(=O)C(C)C)cc4)nc23)cc1` [Compound I-91, N-[(1S)-3-hydroxy-1-(p-tolyl)propyl]-2-(4-isopropylsulfonylphenyl)-5H-pyrrolo[2,3-b]pyrazine-7-carboxamide], the Ki under setting [1] is 100 to 500 nM. As for `CC(C)S(=O)(=O)c1ccc(-c2cnc3[nH]cc(C(=O)N4CC5CCC(C4)O5)c3n2)cc1` [Compound I-116, [2-(4-isopropylsulfonylphenyl)-5H-pyrrolo[2,3-b]pyrazin-7-yl]-(8-oxa-3-azabicyclo[3.2.1]octan-3-yl)methanone], the Ki under setting [2] was greater than 1000 nM. Turning to `CC(C)S(=O)(=O)c1ccc(-c2cnc3[nH]cc(C(=O)NC4CCC4)c3n2)cc1` [Compound I-97, N-cyclobutyl-2-(4-isopropylsulfonylphenyl)-5H-pyrrolo[2,3-b]pyrazine-7-carboxamide], the Ki under setting [1] fell in the range of 100 to 500 nM. The same measure, in the same setting: the value for `CC(C)S(=O)(=O)c1ccc(-c2cnc3[nH]cc(C(=O)NC4CCc5ccccc54)c3n2)cc1` (centres unmarked) [Compound I-53, N-indan-1-yl-2-(4-isopropylsulfonylphenyl)-5H-pyrrolo[2,3-b]pyrazine-7-carboxamide] was less than 100 nM.

For the compound `CC(C)S(=O)(=O)c1ccc(-c2cnc3[nH]cc(C(=O)N4CCC(CO)CC4)c3n2)cc1` [Compound I-32, [4-(hydroxymethyl)-1-piperidyl]-[2-(4-isopropylsulfonylphenyl)-5H-pyrrolo[2,3-b]pyrazin-7-yl]methanone], the Ki under setting [2] is greater than 4000 nM. On to `Cc1c(F)cccc1CNC(=O)c1c[nH]c2ncc(-c3ccc(S(=O)(=O)C(C)C)cc3)nc12` [Compound I-85, N-[(3-fluoro-2-methyl-phenyl)methyl]-2-(4-isopropylsulfonylphenyl)-5H-pyrrolo[2,3-b]pyrazine-7-carboxamide], for which, under setting [1], the Ki was less than 100 nM. Consider `CC(C)S(=O)(=O)c1ccc(-c2cnc3[nH]cc(C(=O)NOc4ccccc4)c3n2)cc1` [Compound I-100, 2-(4-isopropylsulfonylphenyl)-N-phenoxy-5H-pyrrolo[2,3-b]pyrazine-7-carboxamide], for which the Ki under setting [1] was less than 100 nM.

As to `Cc1cccc(NC(=O)c2c[nH]c3ncc(-c4ccc(S(=O)(=O)C(C)C)cc4)nc23)c1` [Compound I-76, 2-(4-isopropylsulfonylphenyl)-N-(m-tolyl)-5H-pyrrolo[2,3-b]pyrazine-7-carboxamide], the Ki under setting [1] lay in the range of 500 to 5000 nM. For the compound `Cc1cccc(CNC(=O)c2c[nH]c3ncc(-c4ccc(S(=O)(=O)C(C)C)cc4)nc23)c1C` [Compound I-68, N-[(2,3-dimethylphenyl)methyl]-2-(4-isopropylsulfonylphenyl)-5H-pyrrolo[2,3-b]pyrazine-7-carboxamide], the Ki under setting [1] is less than 100 nM. As to `CC(C)S(=O)(=O)c1ccc(-c2cnc3[nH]cc(C(=O)N4CCCNCC4)c3n2)cc1` [Compound I-136, 1,4-diazepan-1-yl-[2-(4-isopropylsulfonylphenyl)-5H-pyrrolo[2,3-b]pyrazin-7-yl]methanone], the Ki under setting [2] was greater than 250 nM. Consider `CC(C)S(=O)(=O)c1ccc(-c2cnc3[nH]cc(C(=O)NC4CCC(CO)CC4)c3n2)cc1` (centres unmarked) [Compound I-127, N-[4-(hydroxymethyl)cyclohexyl]-2-(4-isopropylsulfonylphenyl)-5H-pyrrolo[2,3-b]pyrazine-7-carboxamide], for which the Ki under setting [1] is less than 100 nM. As to `CC(C)S(=O)(=O)c1ccc(-c2cnc3[nH]cc(C(=O)N4CCN(C(=O)OC(C)(C)C)CC4)c3n2)cc1` [Compound I-132, tert-butyl 4-[2-(4-isopropylsulfonylphenyl)-5H-pyrrolo[2,3-b]pyrazine-7-carbonyl]piperazine-1-carboxylate], the Ki under setting [2] was greater than 2500 nM. As to `CC(C)S(=O)(=O)c1ccc(-c2cnc3[nH]cc(C(=O)NCC4(O)CCCCC4)c3n2)cc1` [Compound I-94, N-[(1-hydroxycyclohexyl)methyl]-2-(4-isopropylsulfonylphenyl)-5H-pyrrolo[2,3-b]pyrazine-7-carboxamide], under setting [1], the Ki was less than 100 nM. For `CC(C)S(=O)(=O)c1ccc(-c2cnc3[nH]cc(C(=O)Nc4ccccn4)c3n2)cc1` [Compound I-4, 2-(4-isopropylsulfonylphenyl)-N-(2-pyridyl)-5H-pyrrolo[2,3-b]pyrazine-7-carboxamide], under setting [1], the Ki is 100 to 500 nM.

`CC(C)S(=O)(=O)c1ccc(-c2cnc3[nH]cc(C(=O)Nc4cccnc4)c3n2)cc1` [Compound I-5, 2-(4-isopropylsulfonylphenyl)-N-(3-pyridyl)-5H-pyrrolo[2,3-b]pyrazine-7-carboxamide]: the Ki under setting [1] is less than 100 nM.

As to `CC(C)S(=O)(=O)c1ccc(-c2cnc3[nH]cc(C(=O)N(CC(N)=O)C4CCCC4)c3n2)cc1` [Compound I-131, N-(2-amino-2-oxo-ethyl)-N-cyclopentyl-2-(4-isopropylsulfonylphenyl)-5H-pyrrolo[2,3-b]pyrazine-7-carboxamide], the Ki under setting [2] was greater than 40 nM. Take `CC(C)S(=O)(=O)c1ccc(-c2cnc3[nH]cc(C(=O)NCC4CCC4)c3n2)cc1` [Compound I-29, N-(cyclobutylmethyl)-2-(4-isopropylsulfonylphenyl)-5H-pyrrolo[2,3-b]pyrazine-7-carboxamide]: the Ki under setting [1] is less than 100 nM.

As to `CC(C)S(=O)(=O)c1ccc(-c2cnc3[nH]cc(C(=O)N4CCC5(CC4)OCCO5)c3n2)cc1` [Compound I-128, 1,4-dioxa-8-azaspiro[4.5]decan-8-yl-[2-(4-isopropylsulfonylphenyl)-5H-pyrrolo[2,3-b]pyrazin-7-yl]methanone], the Ki was less than 100 nM. Regarding `CC(C)S(=O)(=O)c1ccc(-c2cnc3[nH]cc(C(=O)Nc4ccccc4C#N)c3n2)cc1` [Compound I-41, N-(2-cyanophenyl)-2-(4-isopropylsulfonylphenyl)-5H-pyrrolo[2,3-b]pyrazine-7-carboxamide], the Ki under setting [1] was less than 100 nM.

Consider `CC(C)S(=O)(=O)c1ccc(-c2cnc3[nH]cc(C(=O)Nc4noc5ccccc45)c3n2)cc1` [Compound I-43, N-(1,2-benzoxazol-3-yl)-2-(4-isopropylsulfonylphenyl)-5H-pyrrolo[2,3-b]pyrazine-7-carboxamide], for which, under setting [1], the Ki is less than 100 nM.

The values above are taken from US9096602B2, “Substituted pyrrolo[2,3-B]pyrazines as ATR kinase inhibitors” (Vertex Pharmaceuticals Incorporated, priority 2011, dated 2015).
